Source: PubChem BioAssay AID2060891 (Molecular Pharmacology Branch, DTP, NCI, 2025)
Values belong to the molecule of their own block, whether it stands above or below them.

Test system: K98450-129-R-PDC complex spheroid growth, percent test/control
Assay: Anticancer human tumor K98450-129-R-PDC patient-derived colon adenocarcinoma cell line growth inhibition [RAS]
Details: for IC50: curve of first compound; for viability, T/C: stronger effect = lower value
Description: RAS pathway inhibitors in Combinations in Complex Spheroids
A high-throughput screen of multi-cell type tumor spheroids was designed to identify active combinations of RAS pathway inhibitors and targeted small molecules. Complex spheroids include a stromal component modeled by human endothelial cells (HUVEC) and fibroblasts modeled by human mesenchymal stem cells (MSCs). The concentration ranges selected for each drug and investigational agent were based upon clinically achievable concentrations if the clinical Cmax of the agent was known.
Compounds. The drugs and investigational agents: abemaciclib (NSC768073), cobimetinib (NSC768068), divarasib (GDC6063, NSC841802), docetaxel (NSC628503), GDC-1971 (RLY-1971, NSC841576), gemcitabine (NSC613327), inavolisib (NSC800729), ipatasertib (NSC767898), KB-0742 (NSC834161), MRTX-1133 (NSC836407), osimertinib (NSC779217), RMC-4630 (NSC839698), RMC-6236 (NSC851965), RMC-6291 (NSC852671), Ro-3306 (NSC812927), sapanisertib (NSC764658), SN-38 (NSC673596), staurosporine (NSC755774), SY5609 (NSC837396), and tovorafenib (DAY101, NSC766906), were obtained from the National Cancer Institute (NCI) Developmental Therapeutics Program Chemical Repository. The FDA-approved anticancer drug set is available from the NCI Developmental Therapeutics Program. […] The stock solutions were prepared in dimethyl sulfoxide (DMSO, Sigma-Aldrich, St. Louis, MO, cat. D2650) at 800-fold the tested concentration and stored at -70 degrees C prior to their use. All drugs and investigational agents were tested over a range starting from a high concentration at or near the clinical Cmax and decreasing in half-log increments. If the clinical Cmax for an agent had not been determined, the highest concentration tested was 10 microM.
Cell Culture. All cells were maintained in an incubator at 37 degrees C and 5% CO2 with 95% humidity. The PDC lines were cultured according to standard operating procedures established by the NCI PDMR. All PDCs were thawed and cultured in Matrigel-coated flasks prepared with a working solution of 1X Ham's F-12 nutrient mix, without supplementation (Invitrogen, Waltham, MA, cat. 11765054), 100 U/mL penicillin-streptomycin (Invitrogen, cat. 15140122), and 2.5% Matrigel (Corning Inc., Corning, NY, cat. 354248) for the first three passages. The 362531-283-R-J2-PDC and 782815-120-R-J1-PDC lines were cultured in 6C/Colon 1B media, which includes advanced DMEM/F-12 (Thermo Fisher Scientific, cat. 12634028), 10 mM HEPES (Thermo Fisher Scientific, cat. 15630080), 1X GlutaMAX supplement (Thermo Fisher Scientific, cat. 35050061), 0.1 mg/mL primocin (InvivoGen, San Diego, CA, cat. ant-pm-2), 10% defined fetal bovine serum, heat inactivated (HyClone Laboratories Inc., Logan, UT, cat. SH30070.03HI), 50% L-WRN conditioned media (ATCC, cat. CRL-3276), 1.25 mM N-Acetyl-L-cysteine (Sigma-Aldrich, cat. A9165), 10 mM nicotinamide (Sigma-Aldrich, cat. N0636), 1X B-27 supplement (Thermo Fisher Scientific, cat. 17504044), 1X N-2 supplement (Thermo Fisher Scientific, cat. 17502048), 50 ng/mL human EGF (Thermo Fisher Scientific, cat. PHG0311), and 10 microM Y-27632 dihydrochloride (Tocris Bioscience, cat. 1254). The K12877-001-R-J1-PDC line was cultured in 6I media, which includes all 6C/Colon 1B media plus 10 ng/mL human FGF-10 (PeproTech, cat. 100-26), 1 ng/mL human FGF-2 (PeproTech, cat. 100-18B), 1 µM prostaglandin E2 (Tocris Bioscience, cat. 2296), […] hydrocortisone (Sigma-Aldrich, cat. H4001), and […] bovine insulin (Sigma-Aldrich, cat. I6634). The K86415-001-R-J1-PDC line was cultured in 6D media, which includes all 6C/Colon 1B media components minus the L-WRN conditioned media. The 485176-168-R4-J1-PDC was cultured in PANC media, which includes all 6C/Colon 1B media plus 100 ng/mL human FGF-10 (PeproTech, cat. 100-26), 500 nM SB-431542 (Selleckchem, cat. S1067), and 10 nM gastrin (Tocris Bioscience, cat. 3006). […]

[1] = second compound 0.0316 µM, first compound 0.0316 µM
[2] = second compound 0.0316 µM, first compound 0.1 µM
[3] = second compound 0.0316 µM, first compound 0.316 µM
[4] = second compound 0.0316 µM, first compound 1 µM
[5] = second compound 0.0316 µM, first compound 3.16 µM
[6] = second compound 0.0316 µM, first compound 10 µM
[7] = second compound 0.1 µM, first compound 0.0316 µM
[8] = second compound 0.1 µM, first compound 0.1 µM
[9] = second compound 0.1 µM, first compound 0.316 µM
[10] = second compound 0.1 µM, first compound 1 µM
[11] = second compound 0.1 µM, first compound 3.16 µM
[12] = second compound 0.1 µM, first compound 10 µM
[13] = second compound 0.316 µM, first compound 0.0316 µM
[14] = second compound 0.316 µM, first compound 0.1 µM
[15] = second compound 0.316 µM, first compound 0.316 µM
[16] = second compound 0.316 µM, first compound 1 µM
[17] = second compound 0.316 µM, first compound 3.16 µM
[18] = second compound 0.316 µM, first compound 10 µM
[19] = second compound 1 µM, first compound 0.0316 µM
[20] = second compound 1 µM, first compound 0.1 µM
[21] = second compound 1 µM, first compound 0.316 µM
[22] = second compound 1 µM, first compound 1 µM
[23] = second compound 1 µM, first compound 3.16 µM
[24] = second compound 1 µM, first compound 10 µM
[25] = second compound 3.16 µM, first compound 0.0316 µM
[26] = second compound 3.16 µM, first compound 0.1 µM
[27] = second compound 3.16 µM, first compound 0.316 µM
[28] = second compound 3.16 µM, first compound 1 µM
[29] = second compound 3.16 µM, first compound 3.16 µM
[30] = second compound 3.16 µM, first compound 10 µM
[31] = second compound 10 µM, first compound 0.0316 µM
[32] = second compound 10 µM, first compound 0.1 µM
[33] = second compound 10 µM, first compound 0.316 µM
[34] = second compound 10 µM, first compound 1 µM
[35] = second compound 10 µM, first compound 3.16 µM
[36] = second compound 10 µM, first compound 10 µM
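Further: spheroids exposed to agents for seven days before the viability readout.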
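Wherever viability, T/C is given: luminescence used as a proxy for viable cell amount.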

IC50 (second compound 0.0316 µM): > 10 µM | IC50 (second compound 0.1 µM): > 10 µM | IC50 (second compound 0.316 µM): > 10 µM | IC50 (second compound 1 µM): > 10 µM | IC50 (second compound 3.16 µM): > 10 µM | IC50 (second compound 10 µM): > 10 µM
SMILES: CC1(O)CCCC1n1c(=O)c(C(F)F)cc2cnc(NC3CCN(S(C)(=O)=O)CC3)nc21 (stereo unspecified) + C#Cc1c(F)ccc2cc(O)cc(-c3ncc4c(N5CC6CCC(C5)N6)nc(OCC56CCCN5CC(F)C6)nc4c3F)c12
viability, T/C [1]: 105% | viability, T/C [2]: 101% | viability, T/C [3]: 91.3% | viability, T/C [4]: 78.3% | viability, T/C [5]: 64.2% | viability, T/C [6]: 59.3% | viability, T/C [7]: 108% | viability, T/C [8]: 101% | viability, T/C [9]: 91.7% | viability, T/C [10]: 77.8% | viability, T/C [11]: 65.8% | viability, T/C [12]: 60.5% | viability, T/C [13]: 106% | viability, T/C [14]: 99.5% | viability, T/C [15]: 92.4% | viability, T/C [16]: 78.8% | viability, T/C [17]: 65.5% | viability, T/C [18]: 60.5% | viability, T/C [19]: 104% | viability, T/C [20]: 103% | viability, T/C [21]: 89.3% | viability, T/C [22]: 68.8% | viability, T/C [23]: 58.8% | viability, T/C [24]: 55.3% | viability, T/C [25]: 90.9% | viability, T/C [26]: 94.2% | viability, T/C [27]: 83.5% | viability, T/C [28]: 73.7% | viability, T/C [29]: 63.8% | viability, T/C [30]: 57.3% | viability, T/C [31]: 89.8% | viability, T/C [32]: 85.6% | viability, T/C [33]: 80% | viability, T/C [34]: 67.4% | viability, T/C [35]: 57.4% | viability, T/C [36]: 51%

IC50 (second compound 0.0316 µM): 6.08 µM | IC50 (second compound 0.1 µM): 5.51 µM | IC50 (second compound 0.316 µM): 6.22 µM | IC50 (second compound 1 µM): 5.71 µM | IC50 (second compound 3.16 µM): 5.43 µM | IC50 (second compound 10 µM): 4.67 µM
SMILES: CCC(CC)c1cc(NC2CCC(N)C2)n2nccc2n1 (stereo unspecified) + C#Cc1c(F)ccc2cc(O)cc(-c3ncc4c(N5CC6CCC(C5)N6)nc(OCC56CCCN5CC(F)C6)nc4c3F)c12
viability, T/C [1]: 99.8% | viability, T/C [2]: 102% | viability, T/C [3]: 103% | viability, T/C [4]: 106% | viability, T/C [5]: 93.7% | viability, T/C [6]: 16.3% | viability, T/C [7]: 105% | viability, T/C [8]: 108% | viability, T/C [9]: 102% | viability, T/C [10]: 98.3% | viability, T/C [11]: 81.7% | viability, T/C [12]: 16.9% | viability, T/C [13]: 105% | viability, T/C [14]: 117% | viability, T/C [15]: 108% | viability, T/C [16]: 97.7% | viability, T/C [17]: 94.8% | viability, T/C [18]: 20% | viability, T/C [19]: 104% | viability, T/C [20]: 99.8% | viability, T/C [21]: 99.4% | viability, T/C [22]: 101% | viability, T/C [23]: 82.4% | viability, T/C [24]: 19.1% | viability, T/C [25]: 91.7% | viability, T/C [26]: 97.1% | viability, T/C [27]: 94.9% | viability, T/C [28]: 84.7% | viability, T/C [29]: 79.1% | viability, T/C [30]: 18.9% | viability, T/C [31]: 84.2% | viability, T/C [32]: 90.2% | viability, T/C [33]: 88.2% | viability, T/C [34]: 89.4% | viability, T/C [35]: 68.5% | viability, T/C [36]: 14.1%

IC50 (second compound 0.0316 µM): > 1 µM | IC50 (second compound 0.1 µM): > 1 µM | IC50 (second compound 0.316 µM): > 1 µM | IC50 (second compound 1 µM): > 1 µM | IC50 (second compound 3.16 µM): > 1 µM | IC50 (second compound 10 µM): 0.27 µM
SMILES: CCN1CCN(Cc2ccc(Nc3ncc(F)c(-c4cc(F)c5nc(C)n(C(C)C)c5c4)n3)nc2)CC1 + C#Cc1c(F)ccc2cc(O)cc(-c3ncc4c(N5CC6CCC(C5)N6)nc(OCC56CCCN5CC(F)C6)nc4c3F)c12
viability, T/C (second compound 0.0316 µM, first compound 0.00316 µM): 110% | viability, T/C (second compound 0.0316 µM, first compound 0.01 µM): 105% | viability, T/C [1]: 99% | viability, T/C [2]: 92.4% | viability, T/C [3]: 72.2% | viability, T/C [4]: 74.4% | viability, T/C (second compound 0.1 µM, first compound 0.00316 µM): 109% | viability, T/C (second compound 0.1 µM, first compound 0.01 µM): 100% | viability, T/C [7]: 98.4% | viability, T/C [8]: 86.9% | viability, T/C [9]: 74.1% | viability, T/C [10]: 70.5% | viability, T/C (second compound 0.316 µM, first compound 0.00316 µM): 104% | viability, T/C (second compound 0.316 µM, first compound 0.01 µM): 106% | viability, T/C [13]: 97.6% | viability, T/C [14]: 89.6% | viability, T/C [15]: 74.5% | viability, T/C [16]: 67.4% | viability, T/C (second compound 1 µM, first compound 0.00316 µM): 107% | viability, T/C (second compound 1 µM, first compound 0.01 µM): 99.5% | viability, T/C [19]: 90.1% | viability, T/C [20]: 82.8% | viability, T/C [21]: 66.5% | viability, T/C [22]: 59.2% | viability, T/C (second compound 3.16 µM, first compound 0.00316 µM): 90.4% | viability, T/C (second compound 3.16 µM, first compound 0.01 µM): 94.6% | viability, T/C [25]: 95.8% | viability, T/C [26]: 75.6% | viability, T/C [27]: 62.8% | viability, T/C [28]: 53.6% | viability, T/C (second compound 10 µM, first compound 0.00316 µM): 85.7% | viability, T/C (second compound 10 µM, first compound 0.01 µM): 89.3% | viability, T/C [31]: 81.6% | viability, T/C [32]: 69.8% | viability, T/C [33]: 46.9% | viability, T/C [34]: 31.9%
